As usually defined, the MRT is a mean duration of stay, worked out from the concentration-time curve. The bioavailability is the share of a dose that reaches the circulation, judged against a reference dose that is usually intravenous. As usually defined, the IC50 is the point on the concentration scale where inhibition reaches its midpoint.

Data set [1] in a line: Rat IV/PO pharmacokinetics. The data set is classed as in vivo, Sprague-Dawley rat. The following applies: plasma, IV 1 mg/kg; for MRT / clearance / half-life / Vd: male Sprague-Dawley rats (n = 2); for clearance: read-out: CLp; for half-life: read-out: Elim. t 1/2 (converted); for Vd: read-out: V ss. As for the experimental part: (1700 rcf, 5 minutes, 4 °C) to obtain plasma sample. […]
All brain and plasma samples were stored at -80 °C until analysis by LC-MS/MS.
Male Sprague-Dawley rats were used for discrete pharmacokinetic studies. Compounds in ethanol:
PEG400: saline (1:4:5 v/v/v) were administered intra-venously in two rats at 1 mg/kg (IV PK). Two rats were also gavaged at 10 mg/kg with compounds in 10% Tween 80 in water (PO PK). Blood samples were collected from all […] at […] different time points post-dose (0.25, 0.50, 1.0, 2.0, 4.0, 7.0 and 24 hr) and plasma was prepared as described above. The concentration of compounds in plasma was quantified by LC/MS/MS as described below.
The IV PK experiment was used to determine clearance, Volume of distribution and half-life. The PO experiments were used to determine exposure and oral bioavailability. PK parameters were calculated using Phoenix WinNonlin software (version 8.1).
Samples preparation for bioanalysis
Plasma samples from the in-life phase of the study were thawed at ambient temperature (benchtop), and then aliquots (20 µL per sample) were transferred to a 96-shallow-well (V-bottom) plate. Matrix-matched quality control (QC) samples and standard curves of VU6031545 and VU6024945 (1 mg/mL DMSO stock solution) were prepared in blank rat plasma (K2EDTA-treated) or blank brain homogenate via serial dilution and transferred (20 µL each) to the plate along with multiple blank plasma and brain homogenate samples. Acetonitrile (120 µL) containing IS (10 nM carbamazepine) was added to each well of the plate to precipitate protein. The plate was then centrifuged (4000 rcf, 5 minutes, ambient temperature), and resulting supernatants (60 µL each) were transferred to a new 96-shallow-well (V-bottom) plate containing an equal volume (60 µL per well) of water (Milli-Q purified). The plate was then sealed in preparation for LC-MS/MS analysis. […]

Data set [2] addresses T1, CYP1A2 (Homo sapiens, UniProt P05177).
T1 construct: from tissue; host or cells: human liver microsomes
T1 sequence (P05177 1-516): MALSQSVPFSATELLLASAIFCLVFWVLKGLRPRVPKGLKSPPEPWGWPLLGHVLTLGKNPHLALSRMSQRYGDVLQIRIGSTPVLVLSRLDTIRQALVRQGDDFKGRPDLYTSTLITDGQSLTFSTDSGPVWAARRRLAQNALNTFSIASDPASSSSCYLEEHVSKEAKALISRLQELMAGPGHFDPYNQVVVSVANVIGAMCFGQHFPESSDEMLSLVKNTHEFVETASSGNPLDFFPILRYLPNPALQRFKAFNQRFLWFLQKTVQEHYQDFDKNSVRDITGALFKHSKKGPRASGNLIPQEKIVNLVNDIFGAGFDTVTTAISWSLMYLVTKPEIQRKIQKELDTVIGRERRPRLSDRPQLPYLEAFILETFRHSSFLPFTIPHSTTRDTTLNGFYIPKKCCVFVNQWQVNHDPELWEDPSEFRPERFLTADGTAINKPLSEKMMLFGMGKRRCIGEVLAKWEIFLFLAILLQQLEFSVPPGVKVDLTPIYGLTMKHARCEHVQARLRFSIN
Kind of data set: Cytochrome P450 inhibition using human liver microsomes, CYP1A2. Format: in vitro ADME. As to conditions: read-out: CYP 450 IC50, 1A2. How it is done:
Cytochrome P450 inhibition using Liver Microsomes.
The ability of compounds to inhibit cytochrome P450s (CYPs) was tested using human liver microsomes and a cocktail of substrates specific for CYP1A2, 2C9, 2D6 and 3A4. Compounds were incubated at 37C in presence of human liver microsomes (0.1 mg/ml) at 30, 10, 3, 1, 0.3 and 0.1 µM. A cocktail of substrate was also added for each CYP tested: phenacetin (10 µM, CYP1A2), diclofenac (5 µM, CYP2C9), dextromethorphan (5 µM, CYP2D6) and midazolam (2 µM, CYP3A4). HLM were also incubated with the control inhibitor miconazole at 3, 1, 0.3, 0.1, 0.03 and 0.01 µM. […]
The concentrations of CYP-specific metabolites generated at the end of the reaction were quantified by mass spectrometry using standard curves for each metabolite: acetaminophen (CYP1A2), 4-hydroxydiclofenac (CYP2C9), dextrophan (CYP2D6) and 1-hydroxymidazolam (CYP3A4). A concentration response curve for each metabolite was generated and IC50s were calculated using Prism. The LC-MS/MS transitions for metabolite quantifications are as follows. […]
Prepared samples were injected (10 µL each) onto an AB Sciex Triple Quad 4500 mass spectrometer system with an Agilent 1260 Infinity II pump and autosampler. […] Quantitation of compounds was performed via AB Sciex Multiquant software using the raw analyte:IS peak area ratios. […]
In general terms: Liver microsomes are vesicles of endoplasmic reticulum, rich in cytochrome P450 enzymes.

Where [3] appears, read: male Sprague-Dawley rats, PO 10 mg/kg, read-out: %F (oral bioavailability).

A value given as a limit tells only on which side of the number the result lay.

On to `Cc1csc(NC(=O)c2cc(O[C@@H]3CCOC3)c3sccc3n2)n1` [19aA], for which, in data set [1], the MRT was 2.45 h, the clearance is 49.3 mL/min/kg, the half-life is 3.42 h and the Vd was 6.67 L/kg. In addition, the bioavailability in data set [1] (setting [3]) is above 100%. In data set [2], the IC50 is 1200 nM.

On to `Cc1csc(NC(=O)c2cc(O[C@@H]3CCOC3)cc(F)c2F)n1` [27cA], for which, in data set [1], the MRT was 1.44 h, the clearance came out at 31.3 mL/min/kg, the half-life was 1.78 h and the Vd was found to be 2.89 L/kg. In data set [1] (setting [3]), the bioavailability came out at 17% and the bioavailability at 24 h amounted to 16.6%. Also, the IC50 in data set [2] was 1300 nM.
